For this assay, the target named is T1, human TRPM8 (Homo sapiens, UniProt Q7Z2W7).
T1 construct: expressed in transfected cells
Put plainly: Menthol-induced Ca2+ influx in HEK293 cells stably expressing human TRPM8. The assay is classed as cell-based. Conditions: 30 microM menthol-induced Ca2+ influx, HEK293 cells stably expressing human TRPM8, 11-point dose-response. How it is done:
Measurement of the Menthol-Induced Ca^2+ Influx in HEK293 Cells Stably Expressing Human TRPM8
A cell-based Ca^2+ influx assay using HEK293 cells stably expressing human TRPM8 was used to identify the activity of compounds.
HEK293 cells stably expressing human TRPM8 were grown in T175 flasks at 37° C. in a 5% CO2 humidified incubator to about 80% confluence. Media composition consisted of Dulbecco's Modified Eagle Medium (high glucose), 10% fetal calf serum (FCS), 100 units/ml Penicillin, 100 microg/ml Streptomycin and 600 microg/ml Geneticine. At 24 hours prior to assay, cells were seeded in poly-D-lysine coated 384-well plates (BD FALCON) at a density of 30,000 cells per well in culture medium and grown overnight in 5% CO2 at 37° C. On the assay day, growth media was removed and cells were loaded with 0.5 microM Fluo4-AM (Molecular Probes) and 0.005% Pluronic F-127 dissolved in assay buffer (Hank's balanced salt solution (HBSS), 19.4 mM HEPES pH7.4, 2.5 mM Probenecid) for 1 hour at room temperature. After washing with assay buffer, the cells were preincubated with various concentrations of the compounds for 5 min. The changes in intracellular calcium concentration by addition of 30 microM menthol were monitored by the cell imaging technology by Hamamatsu Photonics's Functional Drug Screening System (FDSS).
The IC50 values for compounds of the present invention were determined from 11-point dose-response studies. Curves were generated using the average of duplicate wells for each data point. Finally, the IC50 values are calculated with the best-fit dose curve determined by XLfit (ID Business Solutions Ltd.).

A word on the IC50: it is the concentration at which inhibition is half-maximal. Read a high IC50 as a need for much substance.

T1 sequence (Q7Z2W7 whole entry): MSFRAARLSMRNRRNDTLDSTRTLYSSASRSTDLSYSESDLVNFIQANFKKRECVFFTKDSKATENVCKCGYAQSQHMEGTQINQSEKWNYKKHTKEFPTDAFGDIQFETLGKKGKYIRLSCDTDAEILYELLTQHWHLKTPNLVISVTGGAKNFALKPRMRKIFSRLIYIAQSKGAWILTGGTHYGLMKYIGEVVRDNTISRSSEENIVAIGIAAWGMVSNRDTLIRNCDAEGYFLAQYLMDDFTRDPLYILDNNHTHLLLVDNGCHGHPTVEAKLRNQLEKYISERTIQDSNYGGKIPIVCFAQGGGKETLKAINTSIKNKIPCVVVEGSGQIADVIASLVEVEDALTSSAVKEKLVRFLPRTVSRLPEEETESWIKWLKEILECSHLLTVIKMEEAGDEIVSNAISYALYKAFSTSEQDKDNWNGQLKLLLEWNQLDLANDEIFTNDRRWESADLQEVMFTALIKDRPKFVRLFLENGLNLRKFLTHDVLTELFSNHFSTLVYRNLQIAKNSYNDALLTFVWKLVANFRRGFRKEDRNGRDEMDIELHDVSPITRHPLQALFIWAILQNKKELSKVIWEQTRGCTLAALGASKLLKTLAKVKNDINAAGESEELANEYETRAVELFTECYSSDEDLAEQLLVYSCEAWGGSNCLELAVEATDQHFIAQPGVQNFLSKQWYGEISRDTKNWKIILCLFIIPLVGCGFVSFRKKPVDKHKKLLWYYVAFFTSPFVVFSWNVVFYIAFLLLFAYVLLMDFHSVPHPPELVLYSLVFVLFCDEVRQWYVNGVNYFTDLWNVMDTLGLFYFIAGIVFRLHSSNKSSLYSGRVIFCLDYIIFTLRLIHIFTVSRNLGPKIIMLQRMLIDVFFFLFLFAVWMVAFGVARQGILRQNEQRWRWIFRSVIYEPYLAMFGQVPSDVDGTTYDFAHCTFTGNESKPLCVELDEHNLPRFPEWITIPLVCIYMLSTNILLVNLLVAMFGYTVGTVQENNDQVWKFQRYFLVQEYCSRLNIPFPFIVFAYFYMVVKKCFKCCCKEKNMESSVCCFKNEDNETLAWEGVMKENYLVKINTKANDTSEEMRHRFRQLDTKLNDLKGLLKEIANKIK

Consider `Cn1ncc2cc(CN(c3ncc(C(F)(F)F)cc3Cl)S(=O)(=O)c3ccc(C(=O)O)cc3)ccc21` [Example 3, 4-(N-(3-Chloro-5-(trifluoromethyl)pyridin-2-yl)-N-((1-methyl-1H-indazol-5-yl)methyl)sulfamoyl)benzoic acid], for which the half-maximal inhibitory concentration (IC50) is < 1000 nM.
For the compound `CCc1cc(C(=O)O)ccc1S(=O)(=O)N(Cc1ccc2c(cnn2C)c1)c1ncc(C(F)(F)F)cc1Cl` [Example 4, 4-(N-(3-Chloro-5-(trifluoromethyl)pyridin-2-yl)-N-((1-methyl-1H-indazol-5-yl)methyl)sulfamoyl)-3-ethylbenzoic acid], the IC50 is < 1000 nM.
For the compound `O=C(O)c1ccc(S(=O)(=O)N(Cc2ccc3occc3c2)c2ncc(Cl)cc2Cl)cc1` [Example 5, 4-(N-(Benzofuran-5-ylmethyl)-N-(3,5-dichloropyridin-2-yl)sulfamoyl)benzoic acid], the 50% inhibitory concentration (IC50) was < 1000 nM.
As to `Cn1ccc2cc(CN(c3ncc(C(F)(F)F)cc3Cl)S(=O)(=O)c3ccc(C(=O)O)cc3)ccc21` [Example 6, 4-(N-(3-Chloro-5-(trifluoromethyl)pyridin-2-yl)-N-((1-methyl-1H-indol-5-yl)methyl)sulfamoyl)benzoic acid], the IC50 is < 1000 nM.
Regarding `Cn1ccc2cc(CN(c3ncc(Cl)cc3Cl)S(=O)(=O)c3ccc(C(=O)O)cc3)ccc21` [Example 7, 4-(N-(3,5-Dichloropyridin-2-yl)-N-((1-methyl-1H-indol-5-yl)methyl)sulfamoyl)benzoic acid], the IC50 is < 1000 nM.
For `Cn1ccc2cc(CN(c3ncc(C(F)(F)F)cc3Cl)S(=O)(=O)c3ccc(C(=O)O)cc3Cl)ccc21` [Example 8, 3-Chloro-4-(N-(3-chloro-5-(trifluoromethyl)pyridin-2-yl)-N-((1-methyl-1H-indol-5-yl)methyl)sulfamoyl)benzoic acid] the value was < 1000 nM; for `Cn1ccc2cc(CN(c3ncc(Cl)cc3Cl)S(=O)(=O)c3ccc(C(=O)O)cc3Cl)ccc21` [Example 9, 3-Chloro-4-(N-(3,5-dichloropyridin-2-yl)-N-((1-methyl-1H-indol-5-yl)methyl)sulfamoyl)benzoic acid], < 1000 nM; for `O=C(O)c1ccc(S(=O)(=O)N(Cc2ccc3ccoc3c2)c2ncc(Cl)cc2Cl)cc1` [Example 10, 4-(N-(Benzofuran-6-ylmethyl)-N-(3,5-dichloropyridin-2-yl)sulfamoyl)benzoic acid], < 1000 nM.
As to `Cc1cc(C(=O)O)ccc1S(=O)(=O)N(Cc1ccc2c(ccn2C)c1)c1ncc(C(F)(F)F)cc1Cl` [Example 11, 4-(N-(3-Chloro-5-(trifluoromethyl)pyridin-2-yl)-N-((1-methyl-1H-indol-5-yl)methyl)sulfamoyl)-3-methylbenzoic acid], the half-inhibitory concentration (IC50) is < 1000 nM.
Consider `Cc1cc(C(=O)O)ccc1S(=O)(=O)N(Cc1ccc2c(ccn2C)c1)c1ncc(Cl)cc1Cl` [Example 12, 4-(N-(3,5-Dichloropyridin-2-yl)-N-((1-methyl-1H-indol-5-yl)methyl)sulfamoyl)-3-methylbenzoic acid], for which the 50% inhibitory concentration (IC50) is < 1000 nM.
`CCn1cc2cc(CN(c3ncc(C(F)(F)F)cc3Cl)S(=O)(=O)c3ccc(C(=O)O)cc3)ccc2n1` [Example 13, 4-(N-(3-Chloro-5-(trifluoromethyl)pyridin-2-yl)-N-((2-ethyl-2H-indazol-5-yl)methyl)sulfamoyl)benzoic acid]: the IC50 is < 1000 nM.
In the case of `CCn1ncc2cc(CN(c3ncc(C(F)(F)F)cc3Cl)S(=O)(=O)c3ccc(C(=O)O)cc3Cl)ccc21` [Example 14, 3-Chloro-4-(N-(3-chloro-5-(trifluoromethyl)pyridin-2-yl)-N-((1-ethyl-1H-indazol-5-yl)methyl)sulfamoyl)benzoic acid], the IC50 is < 1000 nM.
The figure for `Cn1cc2cc(CN(c3ncc(C(F)(F)F)cc3Cl)S(=O)(=O)c3ccc(C(=O)O)cc3)ccc2n1` [Example 16, 4-(N-(3-Chloro-5-(trifluoromethyl)pyridin-2-yl)-N-((2-methyl-2H-indazol-5-yl)methyl)sulfamoyl)benzoic acid] is 1000 to 10000 nM.
On to `Cn1ncc2ccc(CN(c3ncc(C(F)(F)F)cc3Cl)S(=O)(=O)c3ccc(C(=O)O)cc3)cc21` [Example 17, 4-(N-(3-Chloro-5-(trifluoromethyl)pyridin-2-yl)-N-((1-methyl-1H-indazol-6-yl)methyl)sulfamoyl)benzoic acid], for which the IC50 is < 1000 nM.
Compound `Cn1cc2ccc(CN(c3ncc(C(F)(F)F)cc3Cl)S(=O)(=O)c3ccc(C(=O)O)cc3)cc2n1` [Example 18, 4-(N-(3-Chloro-5-(trifluoromethyl)pyridin-2-yl)-N-((2-methyl-2H-indazol-6-yl)methyl)sulfamoyl)benzoic acid] had a 50% inhibitory concentration (IC50) of 1000 to 10000 nM.
For `CCn1ncc2cc(CN(c3ncc(Cl)cc3Cl)S(=O)(=O)c3ccc(C(=O)O)cc3)ccc21` [Example 19, 4-(N-(3,5-Dichloropyridin-2-yl)-N-((1-ethyl-1H-indazol-5-yl)methyl)sulfamoyl)benzoic acid] the value was < 1000 nM; for `COCCn1ncc2cc(CN(c3ncc(C(F)(F)F)cc3Cl)S(=O)(=O)c3ccc(C(=O)O)cc3)ccc21` [Example 20, 4-(N-(3-Chloro-5-(trifluoromethyl)pyridin-2-yl)-N-((1-(2-methoxyethyl)-1H-indazol-5-yl)methyl)sulfamoyl)benzoic acid], < 1000 nM; for `O=C(O)c1ccc(S(=O)(=O)N(Cc2ccc3c(cnn3C3CCOCC3)c2)c2ncc(C(F)(F)F)cc2Cl)cc1` [Example 21, 4-(N-(3-Chloro-5-(trifluoromethyl)pyridin-2-yl)-N-((1-(tetrahydro-2H-pyran-4-yl)-1H-indazol-5-yl)methyl)sulfamoyl)benzoic acid], < 1000 nM.
As for `CC(C)(O)Cn1ncc2cc(CN(c3ncc(C(F)(F)F)cc3Cl)S(=O)(=O)c3ccc(C(=O)O)cc3)ccc21` [Example 22, 4-(N-(3-Chloro-5-(trifluoromethyl)pyridin-2-yl)-N-((1-(2-hydroxy-2-methylpropyl)-1H-indazol-5-yl)methyl)sulfamoyl)benzoic acid], the 50% inhibitory concentration (IC50) fell in the range of 1000 to 10000 nM.
For `CCc1cc(C(=O)O)ccc1S(=O)(=O)N(Cc1ccc2c(cnn2C)c1)c1ncc(Cl)cc1Cl` [Example 23, 4-(N-(3,5-Dichloropyridin-2-yl)-N-((1-methyl-1H-indazol-5-yl)methyl)sulfamoyl)-3-ethylbenzoic acid] the value was < 1000 nM; for `Cn1ncc2cc(CN(c3ncc(Cl)cc3Cl)S(=O)(=O)c3ccc(C(=O)O)cc3Cl)ccc21` [Example 24, 3-Chloro-4-(N-(3,5-dichloropyridin-2-yl)-N-((1-methyl-1H-indazol-5-yl)methyl)sulfamoyl)benzoic acid], < 1000 nM; for `Cn1ncc2cc(CN(c3ncc(C(F)(F)F)cc3Cl)S(=O)(=O)c3ccc(C(=O)O)cc3Cl)ccc21` [Example 25, 3-Chloro-4-(N-(3-chloro-5-(trifluoromethyl)pyridin-2-yl)-N-((1-methyl-1H-indazol-5-yl)methyl)sulfamoyl)benzoic acid], < 1000 nM.
As for `Cc1cc(C(=O)O)ccc1S(=O)(=O)N(Cc1ccc2c(cnn2C)c1)c1ncc(C(F)(F)F)cc1Cl` [Example 26, 4-(N-(3-Chloro-5-(trifluoromethyl)pyridin-2-yl)-N-((1-methyl-1H-indazol-5-yl)methyl)sulfamoyl)-3-methylbenzoic acid], the half-maximal inhibitory concentration (IC50) was < 1000 nM.
Consider `Cc1cc(C(=O)O)ccc1S(=O)(=O)N(Cc1ccc2c(cnn2C)c1)c1ncc(Cl)cc1Cl` [Example 27, 4-(N-(3,5-Dichloropyridin-2-yl)-N-((1-methyl-1H-indazol-5-yl)methyl)sulfamoyl)-3-methylbenzoic acid], for which the 50% inhibitory concentration (IC50) was < 1000 nM.
For `O=C(O)c1ccc(S(=O)(=O)N(Cc2ccc3c(cnn3C3CC3)c2)c2ncc(C(F)(F)F)cc2Cl)cc1` [Example 28, 4-(N-(3-Chloro-5-(trifluoromethyl)pyridin-2-yl)-N-((1-cyclopropyl-1H-indazol-5-yl)methyl)sulfamoyl)benzoic acid] the value was < 1000 nM; for `O=C(O)c1ccc(S(=O)(=O)N(Cc2ccc3c(cnn3C3CC3)c2)c2ncc(Cl)cc2Cl)cc1` [Example 29, 4-(N-((1-Cyclopropyl-1H-indazol-5-yl)methyl)-N-(3,5-dichloropyridin-2-yl)sulfamoyl)benzoic acid], < 1000 nM.
For `Cn1nnc2cc(CN(c3ncc(C(F)(F)F)cc3Cl)S(=O)(=O)c3ccc(C(=O)O)cc3)ccc21` [Example 30, 4-(N-(3-Chloro-5-(trifluoromethyl)pyridin-2-yl)-N-((1-methyl-1H-benzo[d][1,2,3]triazol-5-yl)methyl)sulfamoyl)benzoic acid] the value was 1000 to 10000 nM; for `O=C(O)c1ccc(S(=O)(=O)N(Cc2ccc3c(cnn3C3CC3)c2)c2ncc(C(F)(F)F)cc2Cl)c(Cl)c1` [Example 31, 3-Chloro-4-(N-(3-chloro-5-(trifluoromethyl)pyridin-2-yl)-N-((1-cyclopropyl-1H-indazol-5-yl)methyl)sulfamoyl)benzoic acid], < 1000 nM.

Source of the values: US8829026B2, “Sulfamoyl benzoic acid heterobicyclic derivatives as TRPM8 antagonists” (RaQualia Pharma Inc., priority 2010, dated 2014).
